The IC50 is the point on the concentration scale where inhibition reaches its midpoint.

Some results are limits rather than exact numbers.

Sequence of recombinant human PDE-10 enzyme (PDE-10A) (Q9Y233 whole entry): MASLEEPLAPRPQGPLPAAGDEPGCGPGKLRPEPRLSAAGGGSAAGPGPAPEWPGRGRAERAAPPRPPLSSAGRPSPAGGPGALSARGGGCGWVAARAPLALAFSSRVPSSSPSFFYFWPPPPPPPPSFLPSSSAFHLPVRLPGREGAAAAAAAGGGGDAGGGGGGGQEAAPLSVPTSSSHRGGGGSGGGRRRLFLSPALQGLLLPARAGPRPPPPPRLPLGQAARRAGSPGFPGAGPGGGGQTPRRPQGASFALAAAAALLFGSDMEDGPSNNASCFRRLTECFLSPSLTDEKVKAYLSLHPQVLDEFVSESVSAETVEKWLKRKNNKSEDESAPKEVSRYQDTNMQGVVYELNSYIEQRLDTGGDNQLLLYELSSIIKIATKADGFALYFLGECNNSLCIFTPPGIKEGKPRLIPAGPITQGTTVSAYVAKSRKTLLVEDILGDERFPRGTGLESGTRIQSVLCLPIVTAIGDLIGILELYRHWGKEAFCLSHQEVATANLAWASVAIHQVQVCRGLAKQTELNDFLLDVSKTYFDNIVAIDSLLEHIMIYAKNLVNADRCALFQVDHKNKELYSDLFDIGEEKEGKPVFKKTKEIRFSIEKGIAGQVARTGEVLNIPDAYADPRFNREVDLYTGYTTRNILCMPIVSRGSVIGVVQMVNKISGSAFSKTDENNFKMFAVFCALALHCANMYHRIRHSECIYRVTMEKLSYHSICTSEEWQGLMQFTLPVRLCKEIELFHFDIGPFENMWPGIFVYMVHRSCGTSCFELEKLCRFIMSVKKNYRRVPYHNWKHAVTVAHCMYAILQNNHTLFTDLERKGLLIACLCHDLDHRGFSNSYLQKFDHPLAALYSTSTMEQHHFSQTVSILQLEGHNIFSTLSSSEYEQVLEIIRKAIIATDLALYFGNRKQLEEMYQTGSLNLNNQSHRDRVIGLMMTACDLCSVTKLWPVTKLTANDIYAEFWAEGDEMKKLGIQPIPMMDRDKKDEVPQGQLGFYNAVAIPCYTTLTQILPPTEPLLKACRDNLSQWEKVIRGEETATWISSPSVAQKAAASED

This experiment addresses recombinant human PDE-10 enzyme (PDE-10A) (Homo sapiens (Human), UniProt Q9Y233). Nature of the experiment: IMAP PDE Fluorescence Polarization assay, human PDE-10 inhibition (enzyme assay). The class given is biochemical. The settings on record: recombinant human PDE-10, fluorescein-labeled cAMP/cGMP substrate, 40 min at 37° C. As to the method:
In one embodiment, the compounds provided herein were assayed for their ability to inhibit human PDE-10A. In one embodiment, the activities of the compounds were determined using the Molecular Devices IMAP PDE Fluorescence Polarization assay using recombinant human PDE-10 enzyme expressed in a baculoviral system. Briefly, 10 μL of a compound (0.2 nM-20 μM) was added to either a 96-well half area black plate or a 384-well black plate along with 10 μL of Fluorescein-labeled cAMP/cGMP substrate as per manufacturer's instructions and 10 μL of PDE enzyme (activity 0.1 U). Following a 40-minute incubation at 37° C., 60 μL of IMAP binding reagent was added. […] The data was analyzed using Prism Software (GraphPad Inc, San Diego, Calif.).
A general note: In fluorescence polarisation assays a small probe gives low polarisation when free and higher when bound to something large.
`c1cnc2c(c1)ccc1ccc(CCc3nc4ccccn4n3)nc12` [Compound 156]: the half-maximal inhibitory concentration (IC50) was below 500 nM.
Turning to `Cn1c(CCc2cccc(-c3cccnc3)n2)nc2c3cccnc3ccc21` [Compound 207], the IC50 fell in the range of 1000 to 10000 nM.
In the case of `O=c1[nH]c(CCc2nc3ccccc3[nH]2)nc2ccccc12` [Compound 21], the 50% inhibitory concentration (IC50) fell in the range of 1000 to 10000 nM.
With `c1ccc(-c2c[nH]c(CNc3cnc4ccccc4n3)n2)cc1` [Compound 121], the IC50 was in the range of 1000 to 10000 nM.
Regarding `Cn1c(CCc2ccc3ccccc3n2)nc2ccc3ccccc3c21` [Compound 91], the IC50 lay within 1000 to 10000 nM.
Take `Cn1c(CCc2nc3ccccc3c(=O)[nH]2)nc2ccccc21` [Compound 24]: the half-maximal inhibitory concentration (IC50) is above 10000 nM.
For the compound `Cc1ncc(C)c2nc(CCc3nc4c5cccnc5ccn4n3)ccc12` [Compound 167], the IC50 was below 500 nM.
With `c1cnc2nc(CCc3cn4ccc5ncccc5c4n3)ccc2c1` [Compound 195], the IC50 is 1000 to 10000 nM.
As to `O=c1[nH]c(/C=C/c2nc3ccccc3[nH]2)nc2ccccc12` [Compound 22], the half-maximal inhibitory concentration (IC50) was above 10000 nM.
`Cc1cnc2nc(CCc3nc4c5cccnc5ccn4n3)ccc2c1` [Compound 180]: the 50% inhibitory concentration (IC50) was below 500 nM.
For `c1ccc2nc(CCc3nc4c5ncccc5ccn4n3)ccc2c1` [Compound 153], the IC50 was below 500 nM.
Next, `Cn1c(CCc2cnc3ccccc3n2)nc2c3c(ccc21)NCCC3` [Compound 192]: below 500 nM; `c1ccc(-c2c[nH]c(CCc3ccc4ccccc4c3)n2)cc1` [Compound 35]: above 10000 nM; `Cc1cnc(C)c(CCc2nc3c4cccnc4ccc3n2C)n1` [Compound 205]: below 500 nM.
On to `c1ccc(-c2c[nH]c(CCc3ccccn3)n2)cc1` [Compound 33], for which the IC50 was above 10000 nM.
Consider `Cn1c(CCc2nc(C(F)(F)F)cc(C(F)(F)F)n2)nc2c3cccnc3ccc21` [Compound 194], for which the concentration for half-maximal inhibition (IC50) was below 500 nM.
In the case of `Cn1c(CCc2nc(-c3ccccc3)c[nH]2)nc2ccccc2c1=O` [Compound 10], the IC50 is 1000 to 10000 nM.
As for `Cn1c(CCc2ccc3cccnc3n2)nc2c3cccnc3ccc21` [Compound 203], the IC50 was below 500 nM.
Turning to `O=c1[nH]c(CCc2nc(-c3cccc4ccccc34)c[nH]2)nc2ccccc12` [Compound 55], the half-inhibitory concentration (IC50) was in the range of 1000 to 10000 nM.
Take `Cc1c(CCc2ccc3cccnc3n2)nc2c3cccnc3ccn12` [Compound 197]: the IC50 was below 500 nM.
Turning to `Cn1cc(-c2ccccc2)nc1CCc1cccc(-c2ccncc2)n1` [Compound 152], the IC50 is 1000 to 10000 nM.
With `Cc1ccc(-c2cn(C)c(CCc3ccc4ncccc4n3)n2)cn1` [Compound 174], the IC50 lay within 500 to 1000 nM.
In the case of `Cn1cc(-c2ccccc2)nc1CCc1cccc(-n2ccnc2)n1` [Compound 150], the IC50 is 1000 to 10000 nM.
With `Cc1ccc2ccc(CCc3cn4ccc5ncccc5c4n3)nc2n1` [Compound 196], the IC50 lay in the range of 500 to 1000 nM.
The figure for `Cn1c(CCc2cnc3c(C(F)(F)F)ccc(C(F)(F)F)c3n2)nc2c3cccnc3ccc21` [Compound 143] is below 500 nM.
The figure for `O=c1[nH]c2ccccc2nc1CCc1nc(-c2ccccc2)c[nH]1` [Compound 2] is below 500 nM; for `c1ccc2nc(CCc3ccc4ccc5cccnc5c4n3)ccc2c1` [Compound 159] it is below 500 nM; for `Cn1nc(-c2ccccc2)cc1CCc1nc2ccccc2c(=O)[nH]1` [Compound 15] it is 1000 to 10000 nM.
Turning to `Cc1c(CCc2ccc3ncccc3n2)nc2c3cccnc3ccn12` [Compound 201], the half-inhibitory concentration (IC50) was below 500 nM.
For `Cc1cnc(C)c(CCc2nc(-c3ccccc3)cn2C)n1` [Compound 172], the half-maximal inhibitory concentration (IC50) is below 500 nM.
As for `FC(F)(F)Oc1ccc2[nH]c(CCc3cnc4ccccc4n3)nc2c1` [Compound 105], the IC50 was in the range of 1000 to 10000 nM.
The figure for `Cn1c(CCc2cnc3cccc(Cl)c3n2)nc2c3cccnc3ccc21` [Compound 191] is below 500 nM; for `Cc1ncc(C)n2nc(CCc3ccc4ccc5c(c4n3)NCCO5)nc12` [Compound 168] it is 1000 to 10000 nM.
On to `COc1cccc2ccc(CCc3nc4c5cccnc5ccc4n3C)nc12` [Compound 161], for which the half-inhibitory concentration (IC50) is below 500 nM.
On to `O=c1[nH]c(CCc2nc3ccccc3o2)nc2ccccc12` [Compound 109], for which the IC50 is above 10000 nM.
As to `c1ccc(-c2csc(CCc3cnc4ccccc4n3)n2)cc1` [Compound 108], the half-maximal inhibitory concentration (IC50) is below 500 nM.
The figure for `Cn1c(CCc2cccc(-c3ccccn3)n2)nc2c3cccnc3ccc21` [Compound 206] is 500 to 1000 nM.
Next, `COc1cc2nc(CCc3cnc4ccccc4n3)[nH]c2cc1OC` [Compound 96]: 1000 to 10000 nM; `O=c1[nH]c(CCc2nc(-c3ccccc3)cs2)nc2ccccc12` [Compound 116]: below 500 nM.
On to `Cc1ncc(C)n2nc(CCc3ccc4ccc5c(c4n3)NCCC5)nc12` [Compound 137], for which the 50% inhibitory concentration (IC50) is below 500 nM.
Take `Cc1ncc(CCc2nc(-c3cccnc3)cn2C)nc1C` [Compound 175]: the concentration for half-maximal inhibition (IC50) lay within 1000 to 10000 nM.
For the compound `c1ccc(-c2c[nH]c(CCc3cccs3)n2)cc1` [Compound 29], the IC50 was above 10000 nM.
Turning to `c1cnc2ccc(CCc3cn4ccc5ncccc5c4n3)nc2c1` [Compound 199], the IC50 is below 500 nM.
Next, `Cc1ncc(C)n2nc(CCc3ccc4ccncc4n3)nc12` [Compound 139]: 1000 to 10000 nM; `c1ccc2nc(CCc3nc4c(ccc5ncccc54)[nH]3)ccc2c1` [Compound 86]: below 500 nM.
`Cc1ncc(C)n2nc(CCc3ccc4ccc(F)c(F)c4n3)nc12` [Compound 131]: the concentration for half-maximal inhibition (IC50) is below 500 nM.
Next, `Cc1ccnc2ccc(CCc3nc4c5cccnc5ccn4c3C)nc12` [Compound 187]: below 500 nM; `COc1cccc2ccc(CCc3nc4c5ncccc5ccc4n3C)nc12` [Compound 160]: 500 to 1000 nM.
Turning to `Cc1ccc2ccc(CCc3nc4c(C)ncc(C)n4n3)nc2c1C` [Compound 128], the half-maximal inhibitory concentration (IC50) was below 500 nM.
Turning to `COc1cc2nc(CCc3nc(-c4ccccc4)c[nH]3)[nH]c(=O)c2cc1OC` [Compound 7], the IC50 is above 10000 nM.
Consider `c1ccc(-c2ncc(CCc3cnc4ccccc4n3)o2)cc1` [Compound 80], for which the concentration for half-maximal inhibition (IC50) is above 10000 nM.
For the compound `Cc1ncc(C)n2nc(CCc3ccc4ccc5cccnc5c4n3)nc12` [Compound 133], the IC50 was below 500 nM.
As for `Cc1nc(CCc2nc3c4cccnc4ccc3n2C)nc2ccccc12` [Compound 209], the IC50 is below 500 nM.
Next, `FC(F)(F)c1cnc2nc(CCc3nc4c5cccnc5ccn4n3)ccc2c1` [Compound 182]: above 10000 nM; `Cn1c(CCc2cnc3ccccc3n2)nc2ccccc21` [Compound 26]: 1000 to 10000 nM.
Consider `Cn1c(CCc2ccc3cnccc3n2)nc2c3ncccc3ccc21` [Compound 163], for which the concentration for half-maximal inhibition (IC50) was below 500 nM.
For the compound `CC(C)(C)c1ccc2nc(CCc3cnc4ccccc4n3)[nH]c2c1` [Compound 100], the IC50 was 1000 to 10000 nM.
Regarding `Cn1c(CCc2cnc3ccccc3n2)nc2ccc3ncccc3c21` [Compound 83], the IC50 fell in the range of 1000 to 10000 nM.
For the compound `c1ccc2nc(CCc3nc4ccccc4o3)cnc2c1` [Compound 107], the IC50 is above 10000 nM.
Turning to `c1ccc2nc(CCc3cnc4ccccc4n3)cnc2c1` [Compound 118], the concentration for half-maximal inhibition (IC50) was 1000 to 10000 nM.
The figure for `c1coc(-c2c[nH]c(CCc3ccc4ccccc4n3)n2)c1` [Compound 66] is 500 to 1000 nM; for `Cc1cnc2nc(CCc3nc4c5cccnc5ccn4c3C)ccc2c1` [Compound 184] it is below 500 nM.

The values are drawn from patent publication US9834564B2, “Substituted quinolines as PDE-10 inhibitors” (priority 2010, dated 2017).
